Where no end group is shown, it is not given here.
Columns and labels:
P388 leukemia = experiment: Protective activity against P388 leukemia growth in 5-FU immunosuppressed mice; assay type: in vivo; settings: for Mean Survival days (days ± S.D.): CDF1 mice, 5-FU +, P388 +, 5-FU + saline 4.1; for survival days (in words): daily treatment in addition to 5-FU, 8 times before and 6 times after the transplant
Method: The treatment with cytostatic agents often decreases immunocompetence and consequently increases incidence of metastasis of tumor in cancer patients. […] In the experiment shown in Table 10, male CDF1 mice (6 week old) were treated daily for 8 times with or without 5-FU (28 mg/kg/day ip.) and then transplanted subcutaneously with P388 leukemic cells (3×10^5) into footpad 24 hours later. When pretreated with 5-FU, mice died very quickly at 4 days, while normal mice survived about 23 days after the transplant. […] Thymosin α1 and compound A may improve the immunodefense system against metastatic tumor growth in cancer patients who are receiving immunosuppressive chemotherapy. In combination with thymosin α1 or compound A, more extensive cancer chemotherapy for a longer duration may be possible.
^(1) CDF1 mice were pretreated daily for 8 times from Day 8 to
with 5FU (28 mg/kg/day, ip.).
^(2) Thymosin α1 or Compound A were administered daily for
14 times from Day 8 to 5 by ip. route.
^(3) P388 leukemic cells (3 × 10^5) were inoculated into
^(4) Survival days after the inoculation of the leukemic cells.

[1] = Restoration of thymus weight decreased by 5-FU injection; assay type: in vivo, mice; settings: for Av. thymus weight mg: 8 days after 5-FU, control 39.4, 5-FU alone 23.4; for Av. thymus weight %: % of control; for Restoration Activity(%): thymus weight
Method: It is known that anticancer drugs suppress immunological functions by affecting immunocytes. The thymus gland, which is essential for differentiation, maturation and supply to T-cells responsible for immunological reactions, decreases markedly in weight after injection of 5-FU. […] FIfty μg/kg of Compound A administered orally was as effective as 5 μg/kg of thymosin α1 injected intraperitoneally, when the thymus weight was measured immediately after the DTH measurement at 8 days after the 5-FU injection (see Table 5).
*Seven mice per group received the test compound one day before,
concurrently with, and 1 and 2 days after 5FU injection i.p. (100 mg/kg).
The mice were injected CRBC for The DTH assay at 3 and 7 days after the
The thymus weight was measured at 8 days after the 5FU injection.

[2] = tested on: Listeria monocytogenes EGD; experiment: Protection against Listeria monocytogenes infection in 5-FU immunosuppressed mice; assay type: in vivo; settings: for Survivors at Day 15 after infection: Table 8, i.p., 5-FU immunosuppressed mice, control 2/10
Method: (§1) Normal mice (female ddY mice, 6 weeks old) were highly tolerant to infection with Candida albicans ATCC 10231 at relatively low dose (1-2×10^5 cells, iv.). However, when pretreated daily for ten times with 5-FU (25 mg/kg/day, ip.), the mice were susceptible to infection as shown in Table 6. […] Compound A was also shown to be active against infection with Pseudomonas aeruginosa 5E81-1 and Listeria monocytogenes EGD in the immunosuppressed mice (see Tables 7 and 8).

[3] = tested on: Pseudomonas aeruginosa 5E81-1; experiment: Protection against Pseudomonas aeruginosa infection in 5-FU immunosuppressed mice; assay type: in vivo; settings: for Survivors at Day 15 after infection: Table 7, i.p., 5-FU immunosuppressed mice, control 0/30
Method: as §1

[4] = tested on: delayed-type hypersensitivity (DTH); experiment: Restoration of delayed-type hypersensitivity (DTH) decreased by 5-FU in BDF1 mice; assay type: in vivo; settings: for DTH response %: % of control
Method: A poor prognosis is often observed in cancer patients with impaired immune response. Impaired immune response can be caused by the cancer itself, by chemotherapeutic agents, or by radiotherapy. Thus, therapeutic agents which restore impaired immune response in cancer patients are expected to play an important role in combination therapy. The restoration activity of the compounds of the invention on impaired cell-mediated immunity was determined by measuring the enhancement of delayed-type hypersensitivity (DTH), which was decreased to a great extent in mice treated with 5-fluorouracil (5-FU).
Female BDF1 mice (20-22 g, 11-12 weeks old) received (i.p. or p.o.) the compound to be tested on consecutive days one day before, concurrently with and 1 and 2 days after the 5-FU treatment. For DTH measurement, 10^8 chicken red blood cells (CRBC) were injected i.p. (or s.c. into the left hind footpad) and challenged s.c. into the right hind footpad at 3 and 7 days after the 5-FU treatment, respectively. Restoration activity was calculated by the following formula from the DTH response observed in the control group, 5-FU treated group treatment and the Test group treated both with 5-FU and the compound of the invention. Restoration activity was calculated by the formula: [formula]

[5] = tested on: Listeria monocytogenes EGD; experiment: Growth of Listeria monocytogenes in liver of P388 tumor-bearing mice; assay type: in vivo; settings: for Growth of Bacteria (log10 /liver): Tumor-bearing CDF1 mice, i.p., seven times before infection, 3 days after infection, control 7.1
Source text: The immunocompetence of tumor-bearing mice is known to be frequently deficient. This is illustrated by the fact that Listeria monocytogenes EGD grew considerably in tumor-bearing mice as compared to normal mice (see Table 9). Male CDF1 mice (6 weeks old) transplanted with P388 leukemia (3×10^5 cells, footpad) were infected with Listeria monocytogenes (2×10^3 cells, iv.) 7 days after the transplant. Three days thereafter the number of the bacteria grown in liver was counted.

[6] = Table 2, 5-FU plus 0.5 μg/kg/day, i.p.
[7] = Table 2, 5-FU plus 0.5 μg/kg/day, i.p., control 10.3, 5-FU alone 5.7
[8] = Table 2, 5-FU plus 5.0 μg/kg/day, i.p.
[9] = Table 2, 5-FU plus 5.0 μg/kg/day, i.p., control 10.3, 5-FU alone 5.7
[10] = Table 3, first experiment, 5-FU plus 5.0 μg/kg/day, i.p.
[11] = Table 4, 5-FU plus 5.0 μg/kg/day i.p.
[12] = Table 2, 5-FU plus 0.05 μg/kg/day, i.p.
[13] = Table 3, second experiment, 5-FU plus 0.5 μg/kg/day, i.p.
[14] = Table 4, 5-FU plus 0.5 μg/kg/day p.o.
[15] = Table 4, 5-FU plus 5.0 μg/kg/day p.o.
[16] = Table 4, 5-FU plus 50.0 μg/kg/day p.o.

thymosin α1 (SDAAVDTSSEITTKDLKEKKEVVEEAEN; ends and bridges not checked; UniProt P01252 2-29, looked up) [peptide isolated from bovine thymus, stimulates maturation, differentiation and function of T cells; U.S. Pat. No. 4,079,127, reference compound]
Mean Survival days (days ± S.D.) (P388 leukemia; 4 μg/kg/day ip. 14 times): 17.6 ± 8.2 days | Mean Survival days (days ± S.D.) (P388 leukemia; 40 μg/kg/day ip. 14 times): 20.7 ± 2.8 days | survival days (in words) (P388 leukemia): increased the survival days to the level similar to that obtained in normal mice | Av. thymus weight mg ([1]; 5-FU (100 mg/kg i.p.) plus 0.5 μg/kg/day i.p.): 24.9 ± 1.7 mg | Av. thymus weight mg ([1]; 5-FU (100 mg/kg i.p.) plus 5.0 μg/kg/day i.p.): 26.7 ± 1.1 mg | Av. thymus weight % ([1]; 5-FU plus 0.5 μg/kg/day i.p.): 63.2% | Av. thymus weight % ([1]; 5-FU plus 5.0 μg/kg/day i.p.): 67.8% | Restoration Activity(%) ([1]; 5-FU plus 0.5 μg/kg/day i.p.): 9.4% | Restoration Activity(%) ([1]; 5-FU plus 5.0 μg/kg/day i.p.): 20.6% | Survivors at Day 15 after infection ([2]; 4 μg/kg/day): 7/10 | Survivors at Day 15 after infection ([2]; 40 μg/kg/day): 5/10 | Survivors at Day 15 after infection ([3]; 0.4 μg/kg/day): 7/20 | Survivors at Day 15 after infection ([3]; 4 μg/kg/day): 12/30 | Survivors at Day 15 after infection ([3]; 40 μg/kg/day): 16/30 | Restoration Activity(%) [4, 6]: 1.3% | DTH response % [4, 6]: 56.0% | DTH response av. ± S.E. (0.1 mm) [4, 7]: 5.8 ± 1.1 0.1 mm | Restoration Activity(%) [4, 8]: 50.3% | DTH response % [4, 8]: 77.8% | DTH response av. ± S.E. (0.1 mm) [4, 9]: 8.0 ± 1.2 0.1 mm | DTH response av. ± S.E. (0.1 mm) ([4]; Table 3, first experiment (control 8.5, 5-FU alone 4.8), 5-FU plus 5.0 μg/kg/day, i.p.): 7.3 ± 0.8 0.1 mm | Restoration Activity(%) [4, 10]: 68.7% | DTH response % [4, 10]: 86.3% | DTH response av. ± S.E. (0.1 mm) ([4]; Table 4 (control 7.7, 5-FU alone 5.6), 5-FU plus 0.5 μg/kg/day i.p.): 5.4 ± 1.2 0.1 mm | DTH response av. ± S.E. (0.1 mm) ([4]; Table 4 (control 7.7, 5-FU alone 5.6), 5-FU plus 5.0 μg/kg/day i.p.): 7.3 ± 0.8 0.1 mm | DTH response % ([4]; Table 4, 5-FU plus 0.5 μg/kg/day i.p.): 70.1% | Restoration Activity(%) [4, 11]: 81.0% | DTH response % [4, 11]: 94.8% | Growth of Bacteria (log10 /liver) ([5]; 4 μg/kg/day): 5.0 log10 /liver | Growth of Bacteria (log10 /liver) ([5]; 40 μg/kg/day): 5.3 log10 /liver

KKEVVE [Compound A, L-Lysyl-L-lysyl-L-glutamyl-L-valyl-L-valyl-L-glutamic acid]
Mean Survival days (days ± S.D.) (P388 leukemia; 0.4 μg/kg/day ip. 14 times): 22.3 ± 2.8 days | Mean Survival days (days ± S.D.) (P388 leukemia; 4 μg/kg/day ip. 14 times): 23.7 ± 2.9 days | survival days (in words) (P388 leukemia): increased the survival days to the level similar to that obtained in normal mice | restoration of thymus weight (in words) ([1]; 50 μg/kg orally, one day before, concurrently with, and 1 and 2 days after 5-FU (100 mg/kg)): restore the decreased thymus weight | Av. thymus weight mg ([1]; 5-FU (100 mg/kg i.p.) plus 5.0 μg/kg/day p.o.): 23.0 ± 1.6 mg | Av. thymus weight mg ([1]; 5-FU (100 mg/kg i.p.) plus 50.0 μg/kg/day p.o.): 26.6 ± 1.0 mg | Av. thymus weight % ([1]; 5-FU plus 5.0 μg/kg/day p.o.): 58.4% | Av. thymus weight % ([1]; 5-FU plus 50.0 μg/kg/day p.o.): 67.5% | Restoration Activity(%) ([1]; 5-FU plus 50.0 μg/kg/day p.o.): 20.0% | Survivors at Day 15 after infection ([2]; 0.04 μg/kg/day): 8/10 | Survivors at Day 15 after infection ([2]; 0.4 μg/kg/day): 6/10 | Survivors at Day 15 after infection ([2]; 4 μg/kg/day): 6/10 | activity against infection (in words) ([2]; immunosuppressed mice): active | Survivors at Day 15 after infection ([3]; 0.04 μg/kg/day): 5/20 | Survivors at Day 15 after infection ([3]; 0.4 μg/kg/day): 12/30 | Survivors at Day 15 after infection ([3]; 4 μg/kg/day): 7/30 | activity against infection (in words) ([3]; immunosuppressed mice): active | Restoration Activity(%) [4, 12]: 34.4% | DTH response % [4, 12]: 70.7% | DTH response av. ± S.E. (0.1 mm) ([4]; Table 2, 5-FU plus 0.05 μg/kg/day, i.p., control 10.3, 5-FU alone 5.7): 7.3 ± 0.9 0.1 mm | Restoration Activity(%) [4, 6]: 66.6% | DTH response % [4, 6]: 84.8% | DTH response av. ± S.E. (0.1 mm) [4, 7]: 8.7 ± 1.2 0.1 mm | Restoration Activity(%) [4, 8]: 56.6% | DTH response % [4, 8]: 80.7% | DTH response av. ± S.E. (0.1 mm) [4, 9]: 8.3 ± 0.8 0.1 mm | DTH response av. ± S.E. (0.1 mm) ([4]; Table 3, second experiment (control 15.1, 5-FU alone 8.1), 5-FU plus 0.5 μg/kg/day, i.p.): 10.8 ± 0.8 0.1 mm | Restoration Activity(%) [4, 13]: 39.1% | DTH response % [4, 13]: 71.6% | DTH response av. ± S.E. (0.1 mm) ([4]; Table 4 (control 7.7, 5-FU alone 5.6), 5-FU plus 0.5 μg/kg/day p.o.): 5.4 ± 0.9 0.1 mm | DTH response av. ± S.E. (0.1 mm) ([4]; Table 4 (control 7.7, 5-FU alone 5.6), 5-FU plus 5.0 μg/kg/day p.o.): 5.9 ± 1.0 0.1 mm | DTH response av. ± S.E. (0.1 mm) ([4]; Table 4 (control 7.7, 5-FU alone 5.6), 5-FU plus 50.0 μg/kg/day p.o.): 8.7 ± 1.2 0.1 mm | Restoration Activity(%) [4, 14]: 0% | DTH response % [4, 14]: 70.1% | Restoration Activity(%) [4, 15]: 14.3% | DTH response % [4, 15]: 76.6% | Restoration Activity(%) [4, 16]: 147.6% | DTH response % [4, 16]: 113% | DTH restoration activity (in words) ([4]; administered orally, Table 4): active when administered orally | DTH restoration activity (in words) ([4]; i.p., Tables 2 and 3): equal or in some instances, greater activity than did thymosin α1 at lower doses | Growth of Bacteria (log10 /liver) ([5]; 0.4 μg/kg/day): 6.0 log10 /liver | Growth of Bacteria (log10 /liver) ([5]; 4 μg/kg/day): 5.7 log10 /liver | growth of the bacteria in liver (in words) ([5]; tumor-bearing mice pretreated daily for seven times before infection): growth of the bacteria was suppressed
